{"source": "patent US20010044470A1", "about": "“METHOD TO CONTROL ANIMAL ECTO-PARASITES” (priority 1997, published 2001)", "assay_type_in_all_cases": "in vivo", "key": {"[1]": {"system": "cat fleas (Ctenocephalides felis)", "assay": "Flea egg hatching after oral application to mouse (systemic control)", "conditions": "mouse host, oral 20 mg/kg in corn oil; for adjusted percentage concerning the loss of hatchings (%) 5 days after: flea eggs retrieved 5 days after application; for adjusted percentage concerning the loss of hatchings (%) 14 days after: flea eggs retrieved 14 days after application; for adjusted percentage concerning the loss of hatchings (%) 30 days after: flea eggs retrieved 30 days after application", "method": "By using an appropriate sonde for the mouse, oral application to the mouse was performed at the rate of about 10 mL of the composition per kilogram body weight of the mouse. The said mouse was then stabilized with a wire netting, and was placed in a plastic container (depth 15 cm×width 15 cm×height 60 cm). Thirty (10 male and 20 female) starved adult cat fleas (Ctenocephalides felis) were freed into the said plastic container and the produced f lea eggs were retrieved f ive days later. A suitable amount (about 60 eggs) was transferred to a plastic dish and, preserved under the conditions wherein the temperature was 26° C. and the humidity was at 90%. After 2 days of preservation, the hatching conditions were observed. Afterwards, the treated mouse was allowed to inhabit a standard pet cage with food and water. Ten days after the application, the mouse was stabilized, placed in a plastic container, and was exposed to cat fleas in the same way as stated above. The produced flea eggs were then retrieved 14 days after the application, preserved in the conditions stated above, and had the hatching conditions observed. Twenty-six days after the application, the mouse was stabilized, placed in a plastic container, and was exposed to cat fleas in the same way as stated above. The produced flea eggs were then retrieved 30 days after the application of the composition, preserved in the conditions stated above, and had the hatching conditions observed. The same procedure was repeated without the application of the composition. The percentages of hatching for applied mouse “T” and the percentage of hatching for non-applied mouse “C” were derived from the equation, respectively: T=(the amount of hatched eggs)÷(the amount of retrieved eggs)×100 C=(the amount of hatched eggs)÷(the amount of retrieved eggs)×100 The acquired values of “T” and “C” were used to determine the adjusted percentage concerning the loss of hatchings by employing equation 1. The acquired values of “T” and “C” were utilized in the following equation: The adjusted percentage concerning the loss of hatchings (%)=(C−T)÷C×100 to determine the adjusted percentage concerning the loss of hatchings (hereinafter, recited as APH). […] In other words, “APH” looks at the amount of eggs that were unable to hatch rather than the amount of eggs that were able to hatch."}, "[2]": {"system": "cat fleas (Ctenocephalides felis)", "assay": "Flea egg hatching after oral application to dogs (systemic control)", "conditions": "beagle dog host, oral 10 mg/kg in dog feed", "method": "One day after infestation, the weights of three dogs were measured and Compound #1 was applied orally to each of said three dogs in an amount of 10 mg per one kilogram of the weight of the dog by incorporating Compound #1 into dog feed and having the dog to eat it. After application, the dogs were placed in said steel cages.\n(§1) The flea eggs collected onto the removable bottom tray were retrieved 4 and 5 days after the application. About 60 eggs were chosen from each batch of retrieved eggs. They were transferred to a plastic dish and then preserved under the conditions wherein the temperature was 26° C. and the humidity was at 90%. After 5-7 days of preservation, the eggs were observed about hatching.\nThe same procedure was repeated with another three dogs except that dog feed comprising no Compound #1 was applied. The percentages of hatching for applied dogs “T” and the percentage of hatching for non-applied dogs “C” were derived from the equation, respectively:\n(§2) T=(the amount of hatched eggs)÷(the amount of retrieved eggs)×100\n(§3) C=(the amount of hatched eggs)÷(the amount of retrieved eggs)×100\n(§4) The obtained values of “T” and “C” were then used to determine the APH by employing the equation 1 mentioned above Example 1."}, "[3]": {"system": "cat fleas (Ctenocephalides felis)", "assay": "Flea egg hatching after oral application to cats (systemic control)", "conditions": "cat host, oral 20 mg/kg in cat feed", "method": "Seven days after infestation, the weights of two cats of were measured and Compound #1 was applied orally to each of said two cats in an amount of 20 mg per one kilogram of the weight of the cat by incorporating Compound #1 into cat feed and having the cat to eat it. After application, the cats were placed in said steel cages.\nas §1, with “were retrieved 6 and 14” for “were retrieved 4 and 5”, “6 and 14 days after” for “4 and 5 days after”, “after the date of application. About” for “after the application. About”\nThe same procedure was repeated with another two cats except that cat feed comprising no Compound #1 was applied.\nThe percentages of hatching for applied cats “T” and the percentage of hatching for non-applied cats “C” were derived from the equation, respectively:\nas §2, §3, §4"}}, "note": "Where “and” joins values, the source holds several entries; their conditions need not be identical. Equal entries are not always repeated.", "data": [{"smiles": "O=C(NC(=O)c1c(F)cccc1F)Nc1ccc(OC(F)(F)C(F)F)cc1", "note": "[Compound B, 1-(2,6-difluorobenzoyl)-3-[4-(1,1,2,2-tetrafluoroethoxy)phenyl]urea]", "values": [{"measurement": "adjusted percentage concerning the loss of hatchings (%) 5 days after", "setting": "[1]", "result": 83, "unit": "%"}, {"measurement": "adjusted percentage concerning the loss of hatchings (%) 14 days after", "setting": "[1]", "result": 0, "unit": "%"}]}, {"smiles": "O=C(NC(=O)c1c(F)cccc1F)Nc1cccc(Oc2ncc(C(F)(F)F)cc2Cl)c1", "note": "[Compound C, 1-(2,6-difluorobenzoyl)-3-[3-(3-chloro-5-trifluoromethylpyridin-2-yloxy)phenyl]urea]", "values": [{"measurement": "adjusted percentage concerning the loss of hatchings (%) 5 days after", "setting": "[1]", "result": 96, "unit": "%"}, {"measurement": "adjusted percentage concerning the loss of hatchings (%) 14 days after", "setting": "[1]", "result": 77, "unit": "%"}, {"measurement": "adjusted percentage concerning the loss of hatchings (%) 30 days after", "setting": "[1]", "result": 11, "unit": "%"}]}, {"smiles": "O=C(NC(=O)c1c(F)cccc1F)Nc1ccc(OC(F)(F)C(F)C(F)(F)F)cc1F", "note": "(stereo not drawn) [Compound #1, 1-(2,6-difluorobenzoyl)-3-[2-fluoro-4-(1,1,2,3,3,3-hexafluoropropoxy)phenyl]urea]", "values": [{"measurement": "adjusted percentage concerning the loss of hatchings (%) 5 days after", "setting": "[1]", "result": 100, "unit": "%"}, {"measurement": "adjusted percentage concerning the loss of hatchings (%) 14 days after", "setting": "[1]", "result": 100, "unit": "%"}, {"measurement": "adjusted percentage concerning the loss of hatchings (%) 30 days after", "setting": "[1]", "result": 93, "unit": "%"}, {"measurement": "average APH after 4 days", "setting": "[2]; flea eggs retrieved 4 days after application", "result": 86.5, "unit": "%"}, {"measurement": "average APH after 5 days", "setting": "[2]; flea eggs retrieved 5 days after application, 10 mg/kg", "result": "76.6% and 77%"}, {"measurement": "average APH after 6 days", "setting": "[3]; flea eggs retrieved 6 days after application", "result": 81.9, "unit": "%"}, {"measurement": "average APH after 14 days", "setting": "[3]; flea eggs retrieved 14 days after application, 20 mg/kg", "result": "79.6% and 80%"}]}]}
